The subject of one assay is Streptococcus faecalis. Briefly: In vitro antimicrobial activity, microplate dilution MIC, Streptococcus faecalis. It counts as cell-based. Conditions: Enterococcus faecalis. As to the method:
(§1) The in vitro antimicrobial activity of the compounds of the invention was determined by a microplate dilution procedure. Bacterial cultures were grown in Meuller Hintom II (cation supplemented) broth (S. aureus, S. faecalis, M. luteus, E. coli and P. aeruginosa), Brain Heart Infusion (BHI) broth supplemented with 10% heat inactivated horse serum (S. penumoniae) or BHI broth supplemented with 5 mcg/ml Hemin and 0.5 mcg/ml vitamin K (B. fragilis) at 37° C. for 18-24 hrs. The cultures were grown under aerobic conditions with the exception of B. fragilis which was grown 48 hrs. under anaerobic conditions (atmosphere 5% CO2, 10% H2 and 85% N2). Resulting suspensions were diluted 1/10 in the appropriate broth or used undiluted for the inoculum. Aqueous solutions of the compounds of the invention were solubilized in dimethylsulfoxide (DMSO) at the desired concentration and 200 mcl were dispensed into the first row of wells of a sterile microplate. The compounds were then serially diluted two-fold in DMSO to give a working stock concentration range plate. The last row of wells was left compound-free receiving only DMSO to serve as a growth control. Five mcl from each well of the working stock plate was transferred to corresponding wells of a separate plate containing 95 mcl/well of the appropriate broth. All dilutions were made with either an automated dilutor or manually. The wells of microplate containing the desired compound concentrations and compound-free growth controls in broth were then inoculated using the MIC 2000 inoculator which delivers 1.5 mcl/well to give a final inoculum level of 10^4 microorganism/well or 10^5 microorganism/ml. Plates were incubated as described above and read for visible growth. The minimal inhibitory concentration (MIC: expressed in mcg/ml) of each compound tested against each test microorganism was determined as the lowest concentration of compound which prevents visible microbial growth.

For another assay, the system named is Pseudomonas aeruginosa. In words: In vitro antimicrobial activity, microplate dilution MIC, Pseudomonas aeruginosa. Type of assay: cell-based. Conditions: 10^5 microorganism/ml, read-out: MIC (minimal inhibitory concentration), PA. As to the method: as §1
In a further assay the test system is bacteria. Briefly: In vitro antimicrobial activity, overall comparison over the bacterial panel. It counts as cell-based. Conditions: for improved in vitro activity against named organisms: Staph. aureus, Strep. faecalis, Strep. pneumoniae. As to the method: as §1
A further assay deals with E. coli. Briefly: In vivo antibacterial activity in female mice, E. coli infection. Further details: species or system Escherichia coli. Conditions: mouse; for ED50: Escherichia coli, 168 h, one-half hour postinfection, deaths over seven days; for in vivo activity against E. coli compared with compounds P and Q: Table II. As for the experimental part: (§2) The in vivo antibacterial activity of the compounds of the invention was determined in female mice, 18-20 grams each. Aqueous solutions of the compounds to be tested were prepared by dissolving the free acid form in dilute sodium hydroxide and diluting the solution with distilled water to the desired concentration.
(§3) Cultures of E. coli were grown in brain heart infusion broth, and the mice were inoculated intraperitoneally with 0.5 ml of the bacterial test inoculum suspended in saline. Cultures of Staph. aureus were thawed from frozen pooled stocks and mixed with 5% mucin. A 0.5 ml preparation was used to infect mice by i.p. inoculation.
(§4) The mice were medicated subcutaneously (sc) or orally (po) with 0.5 ml of the test compound solution one-half hour postinfection. Deaths were recorded daily for seven days. Fifty percent protective dose values (PD50) were calculated using probit analyis.

For a further assay, the system named is Staph. aureus. In words: In vivo antibacterial activity in female mice, Staph. aureus infection. Further details: species or system Staphylococcus aureus. Conditions: mouse; for ED50: Staphylococcus aureus, 168 h, one-half hour postinfection, deaths over seven days. As to the method:
as §2, §3, §4

The next assay relates to Micrococcus luteus. Briefly: In vitro antimicrobial activity, microplate dilution MIC, Micrococcus luteus. Type of assay: cell-based. As for the experimental part: as §1
The subject of another assay is Bacteroides fragilis. Briefly: In vitro antimicrobial activity, microplate dilution MIC, Bacteroides fragilis. Type of assay: cell-based. As for the experimental part:
as §1

In another assay the test system is Escherichia coli. Briefly: In vitro antimicrobial activity, microplate dilution MIC, Escherichia coli. Type of assay: cell-based. As for the experimental part:
as §1

Another assay relates to Streptococcus pneumoniae. Briefly: In vitro antimicrobial activity, microplate dilution MIC, Streptococcus pneumoniae. It counts as cell-based. As for the experimental part:
as §1

The subject of another assay is Staphylococcus aureus. In words: In vitro antimicrobial activity, microplate dilution MIC, Staphylococcus aureus. It counts as cell-based. Conditions: for MIC: Staphylococcus aureus, in vitro. As for the experimental part: as §1
Setting [1] is: Streptococcus faecalis, 10^5 microorganism/ml, read-out: MIC (minimal inhibitory concentration), SF.
The mark [2] stands for this setting: po, read-out: PD50 (fifty percent protective dose), E. coli, po.
The mark [3] stands for this setting: sc, read-out: PD50 (fifty percent protective dose), E. coli, sc.
Where [4] appears, read: po, read-out: PD50 (fifty percent protective dose), Staph. aureus, po.
Setting [5] is: sc, read-out: PD50 (fifty percent protective dose), Staph. aureus, sc.
The mark [6] stands for this setting: 10^5 microorganism/ml, read-out: MIC (minimal inhibitory concentration), ML.
Setting [7] is: 10^5 microorganism/ml, anaerobic, read-out: MIC (minimal inhibitory concentration), BF.
[8] abbreviates: 10^5 microorganism/ml, read-out: MIC (minimal inhibitory concentration), EC.
[9] abbreviates: 10^5 microorganism/ml, 10% horse serum in BHI broth, read-out: MIC (minimal inhibitory concentration), SP.
Setting [10] is: Staph. aureus, from Table I MICs.
Where [11] appears, read: 10^5 microorganism/ml, read-out: MIC (minimal inhibitory concentration), SA.
Where [12] appears, read: Strep. pneumoniae, read-out: MIC.

Values after ≈ are worked out from the molar mass of the structure shown. Where two headings read alike, the source gives them in different places.

`Cc1cc(-c2c(F)cc3c(=O)c(C(=O)O)cn4c3c2SC[C@@H]4C)cc(C)n1` [D, (S)-10-(2,6-Dimethyl-4-pyridinyl)-9-fluoro-3-methyl-7-oxo-2,3-dihydro-7H-pyrido[1,2,3-de][1,4]benzothiazine-6-carboxylic acid]: the MIC with Streptococcus faecalis (setting [1]) was 0.06 µg/mL (≈ 0.156 µM); with Pseudomonas aeruginosa it was 2 µg/mL (≈ 5.2 µM); in the assay with Micrococcus luteus (setting [6]), 0.06 µg/mL (≈ 0.156 µM); with Bacteroides fragilis (setting [7]) it was 0.06 µg/mL (≈ 0.156 µM); in the assay with Escherichia coli (setting [8]), 0.06 µg/mL (≈ 0.156 µM); in the assay with Streptococcus pneumoniae (setting [9]), 0.016 µg/mL (≈ 0.0416 µM). The MIC with Staphylococcus aureus (setting [11]) is 0.004 µg/mL (≈ 0.0104 µM). Also, the “in vitro activity compared with prior art compounds P and Q” value in the assay on bacteria (Table I MICs) was “substantilly more active than the prior art compounds (P and Q) against all of the organisms except E. coli and P. aeruginosa”. The ED50 turned out to be 2.6 mg/kg in the assay with E. coli (setting [2]), 1.5 mg/kg with E. coli (setting [3]), 0.03 mg/kg in the assay on Staph. aureus (setting [4]) and 0.03 mg/kg in the assay with Staph. aureus (setting [5]). The “in vivo activity against E. coli compared with compounds P and Q” value with E. coli is “approximately equal in activity to compound Q and slightly less active than compound P against E. coli”. In the assay on Staphylococcus aureus (setting [10]), the “in vitro activity relative to compound P” value is reported as “sixty times as active as compound P”. For the same compound, the “in vitro activity relative to compound Q” value in the assay with Staphylococcus aureus (setting [10]) is “eight times as active as compound Q”.
With `Cc1cc(-c2c(F)c(F)c3c(=O)c(C(=O)O)cn4c3c2OC[C@@H]4C)cc(C)n1` [A, (S)-10-(2,6-Dimethyl-4-pyridinyl)-8,9-difluoro-3-methyl-7-oxo-2,3-dihydro-7H-pyrido[1,2,3-de][1,4]benzoxazine-6-carboxylic acid], the MIC in the assay on Streptococcus faecalis (setting [1]) came out at 0.125 µg/mL (≈ 0.324 µM); in the assay with Pseudomonas aeruginosa it was 8 µg/mL (≈ 20.7 µM); in the assay with Micrococcus luteus (setting [6]) it was 1 µg/mL (≈ 2.59 µM); in the assay with Bacteroides fragilis (setting [7]), 1 µg/mL (≈ 2.59 µM); with Escherichia coli (setting [8]) it was 0.125 µg/mL (≈ 0.324 µM); with Streptococcus pneumoniae (setting [9]), 0.06 µg/mL (≈ 0.155 µM). Further, the MIC in the assay on Staphylococcus aureus (setting [11]) amounted to 0.016 µg/mL (≈ 0.0414 µM). Also, the “improved in vitro activity against named organisms” value with bacteria (Table I MICs) was “improved activity against Staph. auerus, Strep. faecalis and Strip. pneumoniae”. Besides, the ED50 in the assay on E. coli (setting [2]) is 12.3 mg/kg; with E. coli (setting [3]), 4.7 mg/kg; with Staph. aureus (setting [4]) it was 0.13 mg/kg; with Staph. aureus (setting [5]), 0.05 mg/kg. Besides, the “in vivo activity against E. coli compared with compounds P and Q” value in the assay with E. coli was “approximately equal in activity to compound Q and slightly less active than compound P against E. coli”.
`CCn1cc(C(=O)O)c(=O)c2cc(F)c(-c3cc(C)nc(C)c3)cc21` [Q, 7-(2,6-Dimethyl-4-pyridinyl)-1-ethyl-6-fluoro-1,4-dihydro-4-oxo-3-quinolinecarboxylic acid, reference compound]: the MIC came out at 0.25 µg/mL (≈ 0.735 µM) in the assay on Streptococcus faecalis (setting [1]); 4 µg/mL (≈ 11.8 µM) in the assay with Pseudomonas aeruginosa; 0.5 µg/mL (≈ 1.47 µM) in the assay on Micrococcus luteus (setting [6]); 2 µg/mL (≈ 5.88 µM) with Bacteroides fragilis (setting [7]); 0.06 µg/mL (≈ 0.176 µM) in the assay with Escherichia coli (setting [8]); 0.25 µg/mL (≈ 0.735 µM) with Streptococcus pneumoniae (setting [9]). The MIC in the assay on Staphylococcus aureus (setting [11]) stood at 0.03 µg/mL (≈ 0.0881 µM). For the same compound, the ED50 is 8.24 mg/kg in the assay on E. coli (setting [2]), 5.39 mg/kg with E. coli (setting [3]), 1.38 mg/kg with Staph. aureus (setting [4]) and 0.71 mg/kg in the assay on Staph. aureus (setting [5]).
For `CC[C@H]1COc2c(-c3cc(C)nc(C)c3)c(F)cc3c(=O)c(C(=O)O)cn1c23` [Compound C, (S)-10-(2,6-Dimethyl-4-pyridinyl)-9-fluoro-3-ethyl-7-oxo-2,3-dihydro-7H-pyrido[1,2,3-de][1,4]benzoxazine-6-carboxylic acid], the MIC in the assay with Streptococcus faecalis (setting [1]) was 0.125 µg/mL (≈ 0.327 µM); with Pseudomonas aeruginosa, 4 µg/mL (≈ 10.5 µM); in the assay with Micrococcus luteus (setting [6]), 0.5 µg/mL (≈ 1.31 µM); in the assay on Bacteroides fragilis (setting [7]), 0.5 µg/mL (≈ 1.31 µM); in the assay on Escherichia coli (setting [8]), 0.016 µg/mL (≈ 0.0418 µM); in the assay with Streptococcus pneumoniae (setting [9]), 0.06 µg/mL (≈ 0.157 µM). Also, the MIC in the assay with Staphylococcus aureus (setting [11]) is below 0.004 µg/mL. The “improved in vitro activity against named organisms” value in the assay on bacteria (Table I MICs) is “improved activity against Staph. auerus, Strep. faecalis and Strip. pneumoniae”. Also, the ED50 with E. coli (setting [2]) amounted to 32.9 mg/kg; with E. coli (setting [3]), 8.8 mg/kg; in the assay with Staph. aureus (setting [4]), 0.41 mg/kg; in the assay with Staph. aureus (setting [5]), 0.2 mg/kg. Besides, the “more active than compound P against Staph. aureus” value with Staph. aureus (subcutaneous) is “fifteen”. The “more active than compound Q against Staph. aureus” value with Staph. aureus (subcutaneous) is on record as “three times more active”.
On to `Cc1cc(-c2c(F)c(SCc3ccccc3)c3c(=O)c(C(=O)O)cn4c3c2OC[C@@H]4C)cc(C)n1` [Example 4, (S)-8-(Benzylthio)-10-(2,6-dimethyl-4-pyridinyl)-9-fluoro-3-methyl-7-oxo-2,3-dihydro-7H-pyrido[1,2,3-de][1,4]-benzoxazine-6-carboxylic acid], for which the MIC in the assay with Streptococcus faecalis (Strep. faecalis, read-out: MIC) came to 32 µg/mL (≈ 65.2 µM); in the assay with Micrococcus luteus (M. luteus, read-out: MIC), 32 µg/mL (≈ 65.2 µM); with Bacteroides fragilis (B. fragilis, read-out: MIC) it was 32 µg/mL (≈ 65.2 µM); in the assay with Escherichia coli (E. coli, read-out: MIC), 8 µg/mL (≈ 16.3 µM); in the assay with Streptococcus pneumoniae (setting [12]), 8 µg/mL (≈ 16.3 µM); in the assay on Staphylococcus aureus (Staph. aureus, read-out: MIC) it was 1 µg/mL (≈ 2.04 µM). The “antibacterial activity in vitro” value in the assay with bacteria (in words) is given as “appreciable antibacterial activity in vitro”.
Turning to `CCOC(=O)c1cn2c3c(c(-c4cc(C)nc(C)c4)c(F)cc3c1=O)OC[C@H]2C` [Example 6(e), Ethyl (R)-10-(2,6-dimethyl-4-pyridinyl)-9-fluoro-3-methyl-7-oxo-2,3-dihydro-7H-pyrido[1,2,3-de][1,4]benzoxazine-6-carboxylate], the MIC is 4 µg/mL (≈ 10.1 µM) in the assay on Streptococcus faecalis (Strep. faecalis, read-out: MIC); 16 µg/mL (≈ 40.4 µM) in the assay on Bacteroides fragilis (B. fragilis, read-out: MIC); 1 µg/mL (≈ 2.52 µM) with Escherichia coli (E. coli, read-out: MIC); 1 µg/mL (≈ 2.52 µM) in the assay with Streptococcus pneumoniae (setting [12]); 0.25 µg/mL (≈ 0.631 µM) with Staphylococcus aureus (Staph. aureus, read-out: MIC). Also, the “antibacterial activity in vitro” value in the assay on bacteria (in words) is “substantial antibacterial activity in vitro”. Besides, the “in vitro activity compared with the (S)-isomer (compound B)” value in the assay on bacteria (in words) is reported as “less active than the (S)-isomer (compound B)”.
With `CC1COc2c(N3CCN(C)CC3)c(F)cc3c(=O)c(C(=O)O)cn1c23` (stereo not drawn) [P, 9-Fluoro-3-methyl-10-(4-methyl-1-piperazinyl)-7-oxo-2,3-dihydro-7H-pyrido[1,2,3-de][1,4]benzoxazine-6-carboxylic acid, reference compound], the MIC came out at 2 µg/mL (≈ 5.53 µM) in the assay with Streptococcus faecalis (setting [1]); 0.5 µg/mL (≈ 1.38 µM) in the assay with Pseudomonas aeruginosa; 2 µg/mL (≈ 5.53 µM) in the assay on Micrococcus luteus (setting [6]); 0.5 µg/mL (≈ 1.38 µM) with Bacteroides fragilis (setting [7]); 0.008 µg/mL (≈ 0.0221 µM) in the assay on Escherichia coli (setting [8]); 0.25 µg/mL (≈ 0.692 µM) in the assay on Streptococcus pneumoniae (setting [9]). Also, in the assay on Staphylococcus aureus (setting [11]), the MIC came out at 0.25 µg/mL (≈ 0.692 µM). The ED50 with E. coli (setting [2]) worked out at 1.17 mg/kg; with E. coli (setting [3]), 0.48 mg/kg; in the assay with Staph. aureus (setting [4]) it was 6.5 mg/kg; with Staph. aureus (setting [5]), 3 mg/kg.
